According to US20080181940A1, “Method For Accelerating Expression of CPT-1” (Amorepacific Corporation, priority 2003, published 2008):

Experiments:
[1] = test system: obesity induced by high fat diet; assay: Body weight and food consumption of rats on high fat diet, 8 weeks of dieting; type: in vivo, Sprague-Dawley white male rat; conditions: for Body weight after dieting: after 8 weeks, high fat diet + 0.2% of each substance in diet, n = 12; for increase of body weight compared with control group with high fat diet: words, 0.2% in high fat diet, 8 weeks
Source text: In order to verify the effects of the present composition to the metabolism of lipid in the fat animals induced by dieting high fat diet, Sprague-Dawley white male rat model was selected. In order to verify the effects of genistein, diadzein and glycitein to the obesity induced from high fat diet, rats of 6 weeks old were adapted for a week and assigned 12 rats for each experimental group. Experimental groups are as follows: (1) normal fat diet; (2) high fat diet; (3) high fat diet+genistein 0.2%; (4) high fat diet+L-carnitine 0.2%; (5) high fat diet+genistein 0.2%+L-carnitine 0.2%; (6) high fat diet+diadzein 0.2%; (7) high fat diet+diadzein 0.2%+L-carnitine 0.2%; (8) high fat diet+glycitein 0.2%; and (9) high fat diet+glycitein 0.2%+L-carnitine 0.2%, and the rats were […] for 8 weeks. […] The amount of diet consumed and body weight was measure three times per week during dieting.

[2] = test system: adipocytes of male SD rat; assay: Acceleration of oxidation of neutral fat in adipocytes (glycerol released into the medium); type: cell-based; conditions: added in 10 μmol unit, control = 100%, FIG. 1
Description: Epididymal adipose tissues obtained from male SD rat were cut to small pieces, and 0.1% of collagenase (in DMEM without phenol red) was added then cultured for 2 hours at 37° C., and then filtered to obtain adipocyte.
A control was cultured in a medium not containing the composition of the present invention (experimental material). In the experimental samples, genistein and/or L-carnitine was added in 10 μmol unit. Results are calculated relatively converting the control to be 100%. Degrees of oxidation of fats are determined by measuring the concentration of glycerol separated into the medium from the adipocytes.
Experiments were performed by taking cell cultures prepared by adding colorless DMEM (Dulbeco's modified eagles medium) containing 0.5% bovine serum albumin (BAS) without fatty acid to the adipocytes. The amount of glycerol was measured with color reaction method using GPO-trinder kit purchased from Sigma (St. Louis, Mo., U.S.A) and absorption in 540 nm was measured with ELISA reader.

[3] = test system: obesity induced by high fat diet; assay: Weight of epididymal adipose tissue of rats after 8 weeks of high fat diet; type: in vivo, Sprague-Dawley white male rat; conditions: for Weight of epididymal adipose: after 8 weeks, high fat diet + 0.2% of each substance in diet, n = 12; for weight of epididymal adipose compared with control group with high fat diet: words, 0.2% in high fat diet, 8 weeks
Source text: In order to verify the effects of the present composition to the metabolism of lipid in the fat animals induced by dieting high fat diet, Sprague-Dawley white male rat model was selected. In order to verify the effects of genistein, diadzein and glycitein to the obesity induced from high fat diet, rats of 6 weeks old were adapted for a week and assigned 12 rats for each experimental group. Experimental groups are as follows: (1) normal fat diet; (2) high fat diet; (3) high fat diet+genistein 0.2%; (4) high fat diet+L-carnitine 0.2%; (5) high fat diet+genistein 0.2%+L-carnitine 0.2%; (6) high fat diet+diadzein 0.2%; (7) high fat diet+diadzein 0.2%+L-carnitine 0.2%; (8) high fat diet+glycitein 0.2%; and (9) high fat diet+glycitein 0.2%+L-carnitine 0.2%, and the rats were dieted for 8 weeks. Basic experimental diet was purified AIN-93G diet, and high fat diet was prepared to have fat occupy 36% of the total energy (18% of the total diet), normal fat diet was prepared to have fat occupy 17% of the total energy (7% of the total diet).
After 8 weeks of dieting with the groups of normal fat diet, high fat diet, high fat diet+genistein (0.2%), high fat diet+L-carnitine (0.2%), high fat diet+genistein (0.2%)+L-carnitine (0.2%), high fat diet+diadzein (0.2%), high fat diet+diadzein (0.2%)+L-carnitine (0.2%), high fat diet+glycitein (0.2%) and high fat diet+glycitein (0.2%)+L-carnitine (0.2%), the rats were sacrificed to obtain epididymal adipose tissues. The above obtained epididymal adipose tissues were washed with saline and moistures were removed on a filter bed, then weights were measured.

CPT-1 = assay: Expression of CPT-1 mRNA in liver by northern blotting and densitometry; type: in vivo, rat; conditions: 8 weeks
Source text: After 8 weeks of dieting with following four (4) groups of high fat diet, high fat diet+genistein (0.2%), high fat diet+genistein (0.2%)+L-carnitine (0.2%) and high fat diet+genistein (0.4%), the rats were sacrificed to obtain liver tissues thereof. After homogenizing the liver tissues, RNA were extracted from the tissues using TRIZOL (Life Technologies, grand Island, N.Y., USA) consisting of phenol and guanidine isothiocyanate. Degree of expression of CPT-1 mRNA from the above extracted RNA was measured by northern blotting test, and expressed quantitatively by densitometry as shown in FIGS. 2a and 2b.

[4] = cited from earlier work

Row | Compound | Body weight after dieting [1] [g] | increase of body weight compared with control group with high fat diet [1] | oxidation of fatty acids increased compared with that of the control [2] [times] | Weight of epididymal adipose [3] [g] | weight of epididymal adipose compared with control group with high fat diet [3] | expression of CPT-1 compared with the group of high fat diet (CPT-1; 0.2% of each substance in high fat diet, FIG. 2b) | dependence of the expression of CPT-1 on concentration (CPT-1; genistein 0.2% vs 0.4% in high fat diet) | side effects of an excessive quantity, female rats ([4]; female rats) | side effects of an excessive quantity, male rats ([4]; male rats)
1 | C[N+](C)(C)CC(O)CC(=O)[O-] [L-carnitine, β-hydroxy-γ-trimethylammonium butyric acid] | 465.1 ± 31.8 | almost the same | 2.07 | 7.9 ± 0.45 | almost the same | – | – | – | –
2 | O=c1c(-c2ccc(O)cc2)coc2cc(O)ccc12 [diadzein] | 441.3 ± 19.4 | also small | – | 6.1 ± 0.35 | also small | – | – | – | –
3 | O=c1c(-c2ccc(O)cc2)coc2cc(O)cc(O)c12 [genistein] | 433.5 ± 19.4 | small | 1.92 | 5.2 ± 0.67 | small | increased | increases positively according to the concentration of genistein | disorder of secretion | reduction of spermatozoa and sperm
4 | COc1cc2c(=O)c(-c3ccc(O)cc3)coc2cc1O [glycitein] | 446.4 ± 21.6 | also small | – | 6.3 ± 0.41 | also small | – | – | – | –
